Reference: patent US20120101099A1, “HISTONE DEACETYLASE INHIBITORS” (ANTHEM BIOSCIENCES PRIVATE LIMITED, priority 2009, published 2012)
Counter-ions that a name gives are not always drawn. Like-named read-outs stand apart in the source and are kept apart here.

Columns and labels:
Type in all cases: cell-based
PANC-1 = assay: Anti-proliferative activity (GI50); conditions: Homo sapiens
Experimental: (§1) Cells were seeded in a 96-well cell culture plates at a concentration of 10,000 cells per well and incubated at 37° C. in CO2 incubator.
(§2) Twenty-four hours later cells were treated with different concentrations (100, 10, 1, 0.1, and 0.01 μM) of compound dissolved in DMSO and incubated for 48 hours. For To measurement, 24 hours after seeding the cells, 20 μL of 3-(4.5-dimethyl-2- thiazolyl)-2,5-diphenyl-2H-tetrazolium (MTT) solution per well was added to the T0 plate and incubated for 3 hours at 37° C. in a CO2 incubator.
(§3) The plate containing cells and test compounds was treated similarly after 48 hours of incubation. After 3 hours of MTT addition, well contents were aspirated carefully followed by addition of 100 μL DMSO per well. Plates were agitated to ensure dissolution of the formazan crystals in DMSO and absorbance was read at 570 nm (A570). […] From the percentage growths a dose response curve was generated and GI50 values were interpolated from the growth curves.

A431 = assay: Anti-proliferative activity (GI50); conditions: Homo sapiens
Experimental: as §1, §2, §3

SH-SY-5Y = assay: Anti-proliferative activity (GI50); conditions: Homo sapiens, SH-SY5Y, read-out: Anti-proliferative activity (GI50) SH-SY-5Y
Experimental: as §1, §2, §3

MCF-7 = assay: Anti-proliferative activity (GI50); conditions: Homo sapiens
Experimental: as §1, §2, §3

ACHN = assay: Anti-proliferative activity (GI50); conditions: Homo sapiens, read-out: Anti-proliferative activity (GI50) ACHN
Experimental: as §1, §2, §3

Ca Ski = assay: Anti-proliferative activity (GI50); conditions: Homo sapiens, read-out: Anti-proliferative activity (GI50) Ca Ski
Experimental: as §1, §2, §3

RPMI-8226 = assay: Anti-proliferative activity (GI50); conditions: Homo sapiens
Experimental: as §1, §2, §3

U-87-MG = assay: Anti-proliferative activity (GI50); conditions: Homo sapiens, read-out: Anti-proliferative activity (GI50) U-87-MG
Experimental: as §1, §2, §3

HCT-15 = assay: Anti-proliferative activity (GI50); conditions: Homo sapiens
Experimental: as §1, §2, §3

Hela-S3 = assay: Anti-proliferative activity (GI50); conditions: Homo sapiens
Experimental: as §1, §2, §3

HCT-116 = assay: Anti-proliferative activity (GI50); conditions: Homo sapiens
Experimental: as §1, §2, §3

IMR-32 = assay: Anti-proliferative activity (GI50); conditions: Homo sapiens
Experimental: as §1, §2, §3

Calu-6 = assay: Anti-proliferative activity (GI50); conditions: Homo sapiens
Experimental: as §1, §2, §3

KHOS = assay: Anti-proliferative activity (GI50); conditions: read-out: Anti-proliferative activity (GI50) KHOS
Experimental: as §1, §2, §3

Colo-205 = assay: Anti-proliferative activity (GI50); conditions: Homo sapiens
Experimental: as §1, §2, §3

DU-145 = assay: Anti-proliferative activity (GI50); conditions: Homo sapiens
Experimental: as §1, §2, §3

K562 = assay: Anti-proliferative activity (GI50); conditions: Homo sapiens
Experimental: as §1, §2, §3

cleaved PARP = assay: PARP cleavage in HeLa cells (Western Blot); parameters: key: represented by the symbol ‘+’ which indicates the relative extent of modulation; ++: represented by the symbol ‘+’ which indicates the relative extent of modulation; +++: represented by the symbol ‘+’ which indicates the relative extent of modulation; ++++: represented by the symbol ‘+’ which indicates the relative extent of modulation; conditions: 24 hrs, 0.03-3.0 μM
Experimental: HeLa Cells were seeded (0.3×10^6 Cells/well) into a 6 well plate and after 24 hrs compounds were added in 5 different concentrations (0.03, 0.1, 0.3, 1.0, 3.0 μM). After 24 hrs cells were lysed and cellular extract was used for assessing apoptotic activity by detection of cleaved PARP by Western Blot using monoclonal Anti-poly(ADP-Ribose) polymerase antibody, Clone C-2-10(Sigma).

[1] = PANC-1, Table 9, Pancreas, read-out: Anti-proliferative activity (GI50) PANC-1
[2] = A-431, Table 9, Skin, read-out: Anti-proliferative activity (GI50) A431
[3] = MCF7, Table 9, Breast, read-out: Anti-proliferative activity (GI50) MCF-7
[4] = RPMI-8226, Table 9, Leukemia, read-out: Anti-proliferative activity (GI50) RPMI-8226
[5] = HCT-15, Table 9, Colon, read-out: Anti-proliferative activity (GI50) HCT-15
[6] = HeLa S3, Table 9, Cervix, read-out: Anti-proliferative activity (GI50) Hela-S3
[7] = HCT-116, Table 9, Colon, read-out: Anti-proliferative activity (GI50) HCT-116
[8] = IMR-32, Table 9, Brain, read-out: Anti-proliferative activity (GI50) IMR-32
[9] = Calu-6, Table 9, Lung, read-out: Anti-proliferative activity (GI50) Calu-6
[10] = COLO 205, Table 9, Colon, read-out: Anti-proliferative activity (GI50) Colo-205
[11] = DU-145, Table 9, Prostate, read-out: Anti-proliferative activity (GI50) DU-145
[12] = K562, Table 9, Leukemia, read-out: Anti-proliferative activity (GI50) K562

Structure (SMILES)	GI50 (PANC-1; [1]) [nM]	GI50 (A431; [2]) [nM]	GI50 (SH-SY-5Y; Table 9, Brain) [nM]	GI50 (MCF-7; [3]) [nM]	GI50 (ACHN; Table 9, Renal) [nM]	GI50 (RPMI-8226; [4]) [nM]	GI50 (U-87-MG; Table 9, Brain) [nM]	GI50 (HCT-15; [5]) [nM]	GI50 (Hela-S3; [6]) [nM]	GI50 (HCT-116; [7]) [nM]	GI50 (Calu-6; [9]) [nM]	GI50 (Colo-205; [10]) [nM]	GI50 (DU-145; [11]) [nM]	GI50 (K562; [12]) [nM]	GI50 (Ca Ski; Table 9, Cervix) [nM]	GI50 (IMR-32; [8]) [nM]	GI50 (KHOS; Table 9, Bone) [nM]	PARP cleavage (cleaved PARP)	also measured
O=C(NO)c1ccc(Cn2cc(-c3ccc(CN4CCOCC4)cc3)nn2)cc1 [Example 9, N-Hydroxy-4-[4-(4-morpholin-4-ylmethyl-phenyl)-[1,2,3]triazol-1-ylmethyl]-benzamide]	6600	1200 ± 533	200 ± 60	5700 ± 1620	700 ± 110	500 ± 430	2700 ± 740	4100 ± 3200	600 ± 160	1200 ± 18	1400 ± 310	300 ± 71	300 ± 124	300 ± 74	1200 ± 220	900 ± 201	2800 ± 360	+++	
O=C(NO)c1ccc(Cn2cc(-c3ccc(CN4CCCC4)cc3)nn2)cc1 [Example 8, N-Hydroxy-4-[4-(4-pyrrolidin-1-ylmethyl-phenyl)-[1,2,3]triazol-1-ylmethyl]-benzamide]	1300	500 ± 130	200 ± 80	2600 ± 1260	300 ± 140	400 ± 300	500 ± 90	19300 ± 3800	400 ± 90	100 ± 40	600 ± 330	300 ± 50	200 ± 60	300 ± 60	1100 ± 490	400 ± 90	2400 ± 400	+++	
O=C(/C=C/c1cccc(Cn2cc(-c3ccc(CN4CCOCC4)cc3)nn2)c1)NO [Example 25, N-Hydroxy-3-{3-[4-(4-morpholin-4-ylmethyl-phenyl)-[1,2,3]triazol-1-ylmethyl]-phenyl}-acrylamide hydrochloride]	4000	200 ± 30	200 ± 30	2100 ± 2630	200 ± 80	200 ± 250	1100 ± 730	1700 ± 890	200 ± 20	200 ± 50	600 ± 180	200 ± 30	100 ± 30	200 ± 80	400 ± 280	200 ± 20	4600 ± 550	+++	
O=C(CCCCCCC(=O)Nc1ccccc1)NO [SAHA, Suberoylanilide Hydroxamic Acid, reference compound]																		++	GI50 (PANC-1; PANC-1, read-out: Anti-proliferative activity (GI50) PANC-1): 21900 nM; GI50 (A431; A-431, read-out: Anti-proliferative activity (GI50) A431): 1900 ± 1000 nM; GI50 (SH-SY-5Y): 800 ± 400 nM; GI50 (MCF-7; MCF7, read-out: Anti-proliferative activity (GI50) MCF-7): 5500 ± 1200 nM; GI50 (ACHN): 1600 ± 500 nM; GI50 (Ca Ski): 6000 ± 5300 nM; GI50 (RPMI-8226; RPMI-8226, read-out: Anti-proliferative activity (GI50) RPMI-8226): 2200 ± 2300 nM; GI50 (U-87-MG): 6700 ± 1100 nM; GI50 (HCT-15; HCT-15, read-out: Anti-proliferative activity (GI50) HCT-15): 5200 ± 1900 nM; GI50 (Hela-S3; HeLa S3, read-out: Anti-proliferative activity (GI50) Hela-S3): 2900 ± 500 nM; GI50 (HCT-116; HCT-116, read-out: Anti-proliferative activity (GI50) HCT-116): 2200 nM; GI50 (IMR-32; IMR-32, read-out: Anti-proliferative activity (GI50) IMR-32): 1800 ± 200 nM; GI50 (Calu-6; Calu-6, read-out: Anti-proliferative activity (GI50) Calu-6): 3500 ± 500 nM; GI50 (KHOS): 29300 ± 7200 nM; GI50 (Colo-205; COLO 205, read-out: Anti-proliferative activity (GI50) Colo-205): 1600 ± 100 nM; GI50 (DU-145; DU-145, read-out: Anti-proliferative activity (GI50) DU-145): 1300 nM; GI50 (K562; K562, read-out: Anti-proliferative activity (GI50) K562): 2200 ± 700 nM

The next lines start with results.

GI50 (PANC-1; [1]) [nM]	GI50 (A431; [2]) [nM]	GI50 (SH-SY-5Y; Table 9, Brain) [nM]	GI50 (MCF-7; [3]) [nM]	GI50 (ACHN; Table 9, Renal) [nM]	GI50 (RPMI-8226; [4]) [nM]	GI50 (U-87-MG; Table 9, Brain) [nM]	GI50 (HCT-15; [5]) [nM]	GI50 (Hela-S3; [6]) [nM]	GI50 (HCT-116; [7]) [nM]	GI50 (Calu-6; [9]) [nM]	GI50 (Colo-205; [10]) [nM]	GI50 (DU-145; [11]) [nM]	GI50 (K562; [12]) [nM]	Structure (SMILES)	GI50 (Ca Ski; Table 9, Cervix) [nM]	GI50 (IMR-32; [8]) [nM]	GI50 (KHOS; Table 9, Bone) [nM]	PARP cleavage (cleaved PARP)	also measured
1400	400 ± 80	100	5500 ± 1200	100 ± 40	300 ± 160	1000 ± 330	1800 ± 1140	200 ± 80	200 ± 40	400 ± 120	400 ± 40	100 ± 40	200 ± 40	CN(C)Cc1ccc(-c2cn(Cc3ccc(/C=C/C(=O)NO)cc3)nn2)cc1 [Example 21]	1100 ± 730	200 ± 40	10300 ± 3260	++++	
1030	280 ± 50	340 ± 33	3500 ± 2600	90 ± 20	150 ± 50	760 ± 660	9800 ± 4300	230 ± 120	100 ± 110	410 ± 160	310 ± 60	79 ± 40	190 ± 50	O=C(/C=C/c1ccc(Cn2cc(-c3ccc(CN4CCCC4)cc3)nn2)cc1)NO [Example 16, N-Hydroxy-3-{4-[4-(4-pyrrolidin-1-ylmethyl-phenyl)-[1,2,3]triazol-1-ylmethyl]-phenyl}-acrylamide]	420 ± 150	250 ± 70	11700 ± 1100	++++	
